Assays:
[1] = system: APOAl mRNA levels in HepG2 cells; assay: APOAl mRNA levels in HepG2 cells treated with compound (RT-QPCR); assay type: cell-based; settings: 48 hours, 10 μm, vs vehicle (DMSO 0.1%), FIG. 4
Protocol: HepG2 and CV1 cells (ATCC, Rockville, Md.) were maintained in Basic Eagle's medium (BME) supplemented with 2 mM glutamine, 1% non-essential amino acids and 10% (v/v) fetal calf serum (FCS) in an atmosphere of 5% CO2 at 37° C.
Total cellular RNA was extracted using TRIZOL (Invitrogen). Real time quantitative PCR (RT-QPCR) assays were performed using an Applied Biosystems 7900 sequence detector. Total RNA (1 μg) was reverse transcribed with random hexamers using Taqman reverse-transcription reagents kit (Applied Biosystems) following the manufacturer's protocol. RNA expression levels were determined by Sybr green assays as described. 18SrRNA transcript was used as an internal control to normalize the variations for RNA amounts. Gene expression levels are expressed relative to 18S rRNA. Apo Al, Apo B, SR-Bl, SHP, LRH-1 and CYP7α mRNA levels were measured using the following oligonucleotides: For 18S: 5′-[…]-3′ and 5′-[…]-3′; for APO Al: 5′-[…]-3′ and 5′-[…]-3′; for Apo B: 5′-[…]-3′ and 5′-[…]-3′; for SR-Bl: 5′-[…]-3′ and 5′-[…]-3′; for SHP: 5′-[…]-3′ and 5′-[…]-3′; for LRH-1: 5′-[…]-3′ and 5′-[…]-3′; for CYP7α:5′-[…]-3′ and 5′-[…]-3′.
HepG2 cells, cultured in 24-well plates, were treated for 48 hours with Compound I, 10 μm or vehicle (DMSO 0.1%) prior to harvest and determination of APOAl mRNA levels by RT-QPOCR as described in Example 1 above.

[2] = target: T1, Human LRH-1 Ligand Binding Domain (Homo sapiens, UniProt O00482); assay: LRH-1 LBD / TIF2 Box3 coactivator peptide recruitment assay (Eu/APC, Lance mode); assay type: biochemical; settings: n of 44
T1 construct: made in house; host or cells: E. coli BL21(DE3), pRSETa vector
Description: Human LRH-1 Ligand Binding Domain (LRH1 LBD) was expressed in E.coli strain BL21(DE3) as an amino-terminal polyhistidine tagged fusion protein. Expression was under the control of an IPTG inducible T7 promoter. DNA encoding this recombinant protein was subcloned into the pRSETa expression vector (Invitrogen). Sequence encoding the modified polyhistidine tag ([…]) was fused in frame to sequence encoding residues 248-501 of LRH-1. The coding sequence of Human LRH-1 LBD was derived from Genbank accession number U—93553.
Purified LRH-1 LBD was desalted/buffer exchanged using PD-10 gel filtration columns into PBS [100 mM NaPhosphate, pH 7.2, 150 mM NaCl]. LRH-1 LBD was diluted to approximately 10 microM in PBS and five-fold molar excess of NHS-LC-Biotin (Pierce) was added in a minimal volume of PBS. This solution was incubated with gentle mixing for 60 minutes at ambient room temperature. The biotinylation modification reaction was stopped by the addition of 2000× molar excess of Tris-HCl, pH 8. […]
The above solutions are gently mixed together to give a final preparation of 5E-9 M (5 nM) APC-labelled LRH1 LBD and 1E-8 M […] Europium-labelled TIF2 box3 peptide. […] The plates were incubated for 1 hr then read on Wallac Victor2 V in Lance mode for EU/APC. […]

T1 sequence (O00482 288-541): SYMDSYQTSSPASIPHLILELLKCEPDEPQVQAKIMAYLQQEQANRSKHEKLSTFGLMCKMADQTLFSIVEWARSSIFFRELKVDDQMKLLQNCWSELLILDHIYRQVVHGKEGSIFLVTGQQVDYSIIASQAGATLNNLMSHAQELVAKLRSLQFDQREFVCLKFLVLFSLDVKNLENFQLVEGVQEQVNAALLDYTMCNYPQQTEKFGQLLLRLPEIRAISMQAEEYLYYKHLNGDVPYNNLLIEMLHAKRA
T1 sequence (as listed by the source partner): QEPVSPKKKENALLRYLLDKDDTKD

CCC/C=C(\CCC)C1=C(c2ccccc2)[C@@]2(Nc3ccccc3)CCC[C@H]2C1 [Compound 1]
APO Al gene expression (APOAl mRNA levels) [1]: Induces APO Al Gene Expression | EC50 ([2]; LRH1 agonist activity, TIF2 Box3 peptide recruitment, read-out: ave pEC50 (converted)): 257 nM | ave % basal (maximum observed increase in agonist activity compared to the vehicle control) [2]: 277 % basal

From patent US20080227864A1, “Lhr1 Activators as Medicaments” (priority 2004, published 2008)
